# According to US20240180872A1, “METHODS AND COMPOUNDS OF CANNABIDIOL, MELATONIN AND AKBA FOR TREATING PANCREATIC CANCER” (priority 2021, published 2024):
# Experiments:
# [1] = system: pancreatic adenocarcinoma associated genes; test: TaqMan Array gene expression in PANC-1, normalized for GAPDH; conditions: 24 hs, CBD 3.8, MLT 200, AKBA 7.5 micrograms/ml
# Protocol: Total RNA from untreated or CBD, MLT, AKBA alone and in combination treated cell lines was extracted using Rneasy Mini kit (Qiagen, Milan, Italy). One microgram of total RNA from each sample was subjected to reverse transcription in a total volume of 20 μL using the High-Capacity cDNA Archive Kit (Applied Biosystem, Foster City, […], USA) according to the instructions. cDNAs were analyzed by qRT-PCR performed using an IQ5 Multicolor Real time PCR Detection system. Quantitative real-time gene expression was performed with the TaqMan® Array Human Pancreatic Adenocarcinoma 96-well Plate, containing 92 assays to pancreatic adenocarcinoma associated genes and 4 assays to candidate endogenous control genes, was purchased (Thermo Fisher, Grand Island, NY, USA) and used to evaluate the treatments in modulating PDAC-related genes (Table 1). Measurement of different housekeeping genes (GAPDH; HPRT1; GUSB) on the samples was used to normalize mRNA content. The gene expression levels of treated cell lines were expressed as relative fold compared with untreated or vehicle-treated cells.
# To elucidate the molecular events induced by CBD, MLT and AKBA alone and in combination, 92 genes involved in PDAC progression and aggressiveness were evaluated by Taqman Array. Both cell lines were treated with CBD, MLT and AKBA alone and in combination, and the molecular pathways of PDAC associated gene were evaluated.
# Target mRNA levels were normalized for GAPDH expression.
# PANC-1 cell line = test: Cytotoxicity assay (MTT, 72 hours, daily administration) in PANC-1; conditions: Homo sapiens, PANC-1, read-out: % VIABILITY ± S.D.
# Protocol: Human pancreatic ductal adenocarcinoma (PANC-1 and MIAPaCa-2) cell lines were purchased by Sigma Aldrich (Milan, Italy) and cultured in DMEM high glucose medium (EuroClone, Milan, Italy) supplemented with 10% of fetal bovine serum (FBS), 2 mM L-glutamine, 100 IU/mL penicillin, 100 mg streptomycin and 1 mM sodium pyruvate. Cell lines were maintained at 37° C. with 5% CO2 and 95% of humidity.
# 3×10^4 cells/mL were seeded in 96-well plates in a final volume of 100 L/well. After one day of incubation, compounds or vehicles, alone or in combination, were added and six replicates were used for each treatment and all experiments were repeated three times. In all the experiments, the treatment was daily added, after washing with fresh medium. After 72 hours cell viability was investigated by adding 0.8 mg/mL of 3-[4,5-dimethylthiazol-2-yl]-2,5 diphenyl tetrazolium bromide (MTT) (Sigma Aldrich) to the media. After 3 h the supernatant was removed, and the pellet of salt crystals was solubilized with 100 μL/well of DMSO. The absorbance of the sample against a background control was measured at 570 nm using an ELISA reader microliter plate (BioTek Instruments, Winooski, VT, USA).
# Cytotoxicity in PDAC cell lines: The effect of CBD, MLT and AKBA in reducing cell viability was evaluated at 72 hours, post daily administration, in PDAC cell lines. Cells were treated with different doses of CBD, MLT and AKBA (up to 1 mg) and percentage of cell viability was evaluated by the MTT assay. […] The compounds were administered daily for 72 hours, as in previous experiments at the desired doses. […] MTT assay was used to analyse the cell cytotoxicity.
structure (smiles),measurement,setting,value
"COc1ccc2[nH]cc(CCNC(C)=O)c2c1 [MLT, N-[2-(5-methoxy-1H-indol-3-yl)ethyl]acetamide]",AKT3 mRNA relative expression,[1]; VEI 0.00,0.00
same,ARHGEF7 mRNA relative expression,[1]; VEI 0.00,0.017
same,BCL2 mRNA relative expression,[1]; VEI 0.00,0.00
same,CCND2 mRNA relative expression,[1]; VEI 0.00,0.00
same,CDKN2B mRNA relative expression,[1]; VEI 0.00,1.65
same,CYP2E1 mRNA relative expression,[1]; VEI 0.00,0.00
same,EGF mRNA relative expression,[1]; VEI 0.00,0.00
same,IGF1 mRNA relative expression,[1]; VEI 0.00,0.00
same,IL6 mRNA relative expression,[1]; VEI 0.00,0.00
same,KDR mRNA relative expression,[1]; VEI 0.00,0.00
same,KIT mRNA relative expression,[1]; VEI 0.00,0.01
same,MAPK3 mRNA relative expression,[1]; VEI 0.00,0.00
same,MMP1 mRNA relative expression,[1]; VEI 0.00,0.07
same,MMP3 mRNA relative expression,[1]; VEI 0.00,0.00
same,TGFA mRNA relative expression,[1]; VEI 0.00,0.22
same,TGFB2 mRNA relative expression,[1]; VEI 0.00,0.00
same,JAK2 mRNA relative expression,[1]; VEI 0.01,0.01
same,JAK3 mRNA relative expression,[1]; VEI 0.01,0.00
same,MMP7 mRNA relative expression,[1]; VEI 0.01,0.01
same,MMP9 mRNA relative expression,[1]; VEI 0.01,0.04
same,PK3CA mRNA relative expression,[1]; VEI 0.01,0.00
same,RAC2 mRNA relative expression,[1]; VEI 0.01,0.01
same,RB1 mRNA relative expression,[1]; VEI 0.01,0.03
same,TGFB3 mRNA relative expression,[1]; VEI 0.01,0.00
same,TGFBR1 mRNA relative expression,[1]; VEI 0.02,0.00
same,BRCA2 mRNA relative expression,[1]; VEI 0.03,0.34
same,CDKN2D mRNA relative expression,[1]; VEI 0.03,0.04
same,MDM2 mRNA relative expression,[1]; VEI 0.03,0.00
same,RHOB mRNA relative expression,[1]; VEI 0.03,0.03
same,CDKN2C mRNA relative expression,[1]; VEI 0.04,0.14
same,PK3R1 mRNA relative expression,[1]; VEI 0.04,0.02
same,PTGS2 mRNA relative expression,[1]; VEI 0.04,0.02
same,STATSB mRNA relative expression,[1]; VEI 0.04,0.45
same,MAPK1 mRNA relative expression,[1]; VEI 0.05,0.02
same,SMAD2 mRNA relative expression,[1]; VEI 0.05,0.19
same,CCND1 mRNA relative expression,[1]; VEI 0.06,0.10
same,MAP2K2 mRNA relative expression,[1]; VEI 0.06,0.08
same,PK3CD mRNA relative expression,[1]; VEI 0.06,0.06
same,TGFBR2 mRNA relative expression,[1]; VEI 0.06,0.00
same,VEGFA mRNA relative expression,[1]; VEI 0.06,0.03
same,VEGFB mRNA relative expression,[1]; VEI 0.06,0.05
same,CCNA2 mRNA relative expression,[1]; VEI 0.07,0.07
same,CCNE2 mRNA relative expression,[1]; VEI 0.07,0.07
same,EZF3 mRNA relative expression,[1]; VEI 0.07,0.08
same,SMAD4 mRNA relative expression,[1]; VEI 0.07,0.08
same,SOS1 mRNA relative expression,[1]; VEI 0.07,0.06
same,TGFB1 mRNA relative expression,[1]; VEI 0.07,0.05
same,MAP2K1 mRNA relative expression,[1]; VEI 0.08,0.03
same,MMP2 mRNA relative expression,[1]; VEI 0.08,0.00
same,VEGFC mRNA relative expression,[1]; VEI 0.08,0.00
same,CCNE1 mRNA relative expression,[1]; VEI 0.09,0.11
same,CDK2 mRNA relative expression,[1]; VEI 0.09,0.07
same,KRAS mRNA relative expression,[1]; VEI 0.09,0.01
same,RAC1 mRNA relative expression,[1]; VEI 0.09,0.00
same,REL mRNA relative expression,[1]; VEI 0.09,0.08
same,STAT2 mRNA relative expression,[1]; VEI 0.09,0.00
same,CDKN1B mRNA relative expression,[1]; VEI 0.10,0.09
same,CDKN2A mRNA relative expression,[1]; VEI 0.10,0.16
same,RELA mRNA relative expression,[1]; VEI 0.10,0.00
same,AKT1 mRNA relative expression,[1]; VEI 0.11,0.10
same,PK3CB mRNA relative expression,[1]; VEI 0.11,0.13
same,FIGF mRNA relative expression,[1]; VEI 0.14,0.11
same,TP53 mRNA relative expression,[1]; VEI 0.14,0.29
same,EZF4 mRNA relative expression,[1]; VEI 0.16,0.16
same,NFKB2 mRNA relative expression,[1]; VEI 0.16,0.02
same,EZF1 mRNA relative expression,[1]; VEI 0.17,0.14
same,SMAD3 mRNA relative expression,[1]; VEI 0.17,0.22
same,STAT1 mRNA relative expression,[1]; VEI 0.18,0.12
same,BRAF mRNA relative expression,[1]; VEI 0.22,0.13
same,BIRC5 mRNA relative expression,[1]; VEI 0.23,0.13
same,JAK1 mRNA relative expression,[1]; VEI 0.23,0.02
same,CDK4 mRNA relative expression,[1]; VEI 0.24,0.17
same,EGFR mRNA relative expression,[1]; VEI 0.24,0.16
same,RAF1 mRNA relative expression,[1]; VEI 0.25,0.06
same,CCNB1 mRNA relative expression,[1]; VEI 0.27,0.33
same,ERBB2 mRNA relative expression,[1]; VEI 0.27,0.04
same,SRC mRNA relative expression,[1]; VEI 0.27,0.03
same,GRB2 mRNA relative expression,[1]; VEI 0.31,0.23
same,BCL2L1 mRNA relative expression,[1]; VEI 0.35,0.21
same,HSP90AA1 mRNA relative expression,[1]; VEI 0.35,0.00
same,NFKB1 mRNA relative expression,[1]; VEI 0.35,0.09
same,RHOA mRNA relative expression,[1]; VEI 0.37,0.07
same,ELK1 mRNA relative expression,[1]; VEI 0.41,0.09
same,RELB mRNA relative expression,[1]; VEI 0.42,0.06
same,CDC42 mRNA relative expression,[1]; VEI 0.45,0.00
same,CDKN1A mRNA relative expression,[1]; VEI 0.49,0.07
same,AKT2 mRNA relative expression,[1]; VEI 0.50,0.46
same,HBEGF mRNA relative expression,[1]; VEI 0.53,0.39
same,NOTCH1 mRNA relative expression,[1]; VEI 1.03,0.32
same,STAT6 mRNA relative expression,[1]; VEI 1.38,0.01
same,STAT3 mRNA relative expression,[1]; VEI 4.45,0.07
same,viability at 100 µg/mL,PANC-1 cell line,100 ± 5.7%
same,viability at 200 µg/mL,PANC-1 cell line,97.4 ± 6.1%
same,viability at 400 µg/mL,PANC-1 cell line,83.9 ± 6.1%
same,viability at 800 µg/mL,PANC-1 cell line,19.2 ± 1.1%
